Assay results taken from patent publication US10597388B2, “Pyridazinone herbicides” (FMC CORPORATION, priority 2014, dated 2020).

Key:
Assay in all cases: Test C greenhouse herbicide test, pre- and postemergence
Type in all cases: in vivo
[1] = system: barnyardgrass (Echinochloa crus-galli)
Method in brief: (§1)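 Greenhouse pots; pre-em on seeded loam:sand blend, post-em on 2–18 cm plants (1–4 leaf) in sphagnum peat/vermiculite medium. Formulation: non-phytotoxic solvent + surfactant. Read-out: visual % control (0–100) vs controls at 13–15 d.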

[2] = system: blackgrass (Alopecurus myosuroides)
Method in brief: as §1

[3] = system: corn (Zea mays)
Method in brief: as §1

[4] = system: crabgrass, large (large crabgrass, Digitaria sanguinalis)
Method in brief: as §1

[5] = system: foxtail, giant (giant foxtail, Setaria faberii)
Method in brief: as §1

[6] = system: galium (catchweed bedstraw, Galium aparine)
Method in brief: as §1

[7] = system: lambsquarters (Chenopodium album)
Method in brief: as §1

[8] = system: morningglory (Ipomoea coccinea)
Method in brief: as §1

[9] = system: nutsedge, yellow (yellow nutsedge, Cyperus esculentus)
Method in brief: as §1

[10] = system: pigweed (Amaranthus retroflexus)
Method in brief: as §1

[11] = system: ryegrass, Italian (Italian ryegrass, Lolium multiflorum)
Method in brief: as §1

[12] = system: soybean (Glycine max)
Method in brief: as §1

[13] = system: velvetleaf (Abutilon theophrasti)
Method in brief: as §1

[14] = system: waterhemp (common waterhemp, Amaranthus rudis)
Method in brief: as §1

[15] = system: wheat (winter wheat, Triticum aestivum)
Method in brief: as §1

[16] = Postemergence, 31 g ai/ha, scale 0 to 100 (0 no effect, 100 complete control)
[17] = Postemergence, 62 g ai/ha, 0 to 100 scale (0 no effect, 100 complete control)
[18] = Postemergence, 250 g ai/ha, scale 0 to 100, 0 no effect, 100 complete control, 13 to 15 d
[19] = Preemergence, 31 g ai/ha, scale 0 to 100, 0 is no effect, 100 is complete control
[20] = Preemergence, 62 g ai/ha, scale 0 to 100, 0 is no effect, 100 is complete control
[21] = Preemergence, 125 g ai/ha, scale 0 to 100, 0 is no effect, 100 is complete control
[22] = Preemergence, 250 g ai/ha, scale 0 to 100, 0 no effect, 100 complete control
[23] = postemergence, 125 g ai/ha, scale 0 to 100, 0 no effect, 100 complete control

COC(=O)Oc1c(C)nn(C)c(=O)c1-c1ccc(Br)c2ccccc12 [Compound 145]
Plant response rating, Barnyardgrass [1, 16]: 20 | Barnyardgrass plant response rating [1, 17]: 15 | Plant response rating, Barnyardgrass ([1]; Postemergence, 125 g ai/ha, scale 0 to 100, 0 is no effect, 100 is complete control): 30 | Plant response rating, Barnyardgrass [1, 18]: 70 | Plant response rating, Barnyardgrass [1, 19]: 10 | Plant response rating, Barnyardgrass [1, 20]: 35 | Plant response rating, Barnyardgrass [1, 21]: 75 | Barnyardgrass plant response rating [1, 22]: 95 | Plant response rating, Blackgrass [2, 16]: 5 | Blackgrass plant response rating [2, 17]: 0 | Plant response rating, Blackgrass [2, 18]: 90 | Plant response rating, Blackgrass [2, 19]: 10 | Plant response rating, Blackgrass [2, 20]: 30 | Plant response rating, Blackgrass [2, 21]: 60 | Blackgrass plant response rating [2, 22]: 60 | Blackgrass plant response rating [2, 23]: 30 | Plant response rating, Corn [3, 16]: 10 | Corn plant response rating [3, 17]: 5 | Plant response rating, Corn [3, 18]: 10 | Plant response rating, Corn [3, 19]: 0 | Plant response rating, Corn [3, 20]: 0 | Plant response rating, Corn [3, 21]: 0 | Corn plant response rating [3, 22]: 15 | Corn plant response rating [3, 23]: 5 | Plant response rating, Crabgrass, Large [4, 16]: 15 | Crabgrass, Large plant response rating [4, 17]: 10 | Plant response rating, Crabgrass, Large [4, 18]: 20 | Plant response rating, Crabgrass, Large [4, 19]: 5 | Plant response rating, Crabgrass, Large [4, 20]: 50 | Plant response rating, Crabgrass, Large [4, 21]: 55 | Crabgrass, Large plant response rating [4, 22]: 55 | Crabgrass, Large plant response rating [4, 23]: 10 | Plant response rating, Foxtail, Giant [5, 16]: 20 | Foxtail, Giant plant response rating [5, 17]: 25 | Plant response rating, Foxtail, Giant [5, 18]: 55 | Plant response rating, Foxtail, Giant [5, 19]: 35 | Plant response rating, Foxtail, Giant [5, 20]: 60 | Plant response rating, Foxtail, Giant [5, 21]: 75 | Foxtail, Giant plant response rating [5, 22]: 95 | Foxtail, Giant plant response rating [5, 23]: 25 | Plant response rating, Galium [6, 16]: 90 | Galium plant response rating [6, 17]: 95 | Plant response rating, Galium [6, 18]: 100 | Plant response rating, Galium [6, 19]: 90 | Plant response rating, Galium [6, 20]: 98 | Plant response rating, Galium [6, 21]: 100 | Galium plant response rating [6, 22]: 98 | Galium plant response rating [6, 23]: 98 | Plant response rating, Lambsquarters [7, 16]: 98 | Lambsquarters plant response rating [7, 17]: 98 | Plant response rating, Lambsquarters [7, 18]: 100 | Plant response rating, Lambsquarters [7, 19]: 90 | Plant response rating, Lambsquarters [7, 20]: 90 | Plant response rating, Lambsquarters [7, 21]: 100 | Lambsquarters plant response rating [7, 22]: 100 | Lambsquarters plant response rating [7, 23]: 100 | Plant response rating, Morningglory [8, 16]: 95 | Morningglory plant response rating [8, 17]: 98 | Plant response rating, Morningglory [8, 18]: 100 | Plant response rating, Morningglory [8, 19]: 75 | Plant response rating, Morningglory [8, 20]: 80 | Plant response rating, Morningglory [8, 21]: 98 | Morningglory plant response rating [8, 22]: 100 | Morningglory plant response rating [8, 23]: 100 | Plant response rating, Nutsedge, Yellow [9, 16]: 70 | Nutsedge, Yellow plant response rating [9, 17]: 90 | Plant response rating, Nutsedge, Yellow [9, 18]: 95 | Plant response rating, Nutsedge, Yellow [9, 19]: 35 | Plant response rating, Nutsedge, Yellow [9, 20]: 85 | Plant response rating, Nutsedge, Yellow [9, 21]: 95 | Nutsedge, Yellow plant response rating [9, 22]: 90 | Nutsedge, Yellow plant response rating [9, 23]: 85 | Plant response rating, Pigweed [10, 16]: 70 | Pigweed plant response rating [10, 17]: 100 | Plant response rating, Pigweed [10, 18]: 100 | Plant response rating, Pigweed [10, 19]: 70 | Plant response rating, Pigweed [10, 20]: 98 | Plant response rating, Pigweed [10, 21]: 100 | Pigweed plant response rating [10, 22]: 100 | Pigweed plant response rating [10, 23]: 75 | Plant response rating, Ryegrass, Italian [11, 16]: 5 | Ryegrass, Italian plant response rating [11, 17]: 15 | Plant response rating, Ryegrass, Italian [11, 18]: 40 | Plant response rating, Ryegrass, Italian [11, 19]: 100 | Plant response rating, Ryegrass, Italian [11, 20]: 100 | Plant response rating, Ryegrass, Italian [11, 21]: 100 | Ryegrass, Italian plant response rating [11, 22]: 100 | Ryegrass, Italian plant response rating [11, 23]: 30 | Plant response rating, Soybean [12, 16]: 40 | Soybean plant response rating [12, 17]: 40 | Plant response rating, Soybean [12, 18]: 70 | Plant response rating, Soybean [12, 19]: 0 | Plant response rating, Soybean [12, 20]: 55 | Plant response rating, Soybean [12, 21]: 75 | Soybean plant response rating [12, 22]: 80 | Soybean plant response rating [12, 23]: 55 | Plant response rating, Velvetleaf [13, 16]: 85 | Velvetleaf plant response rating [13, 17]: 90 | Plant response rating, Velvetleaf [13, 18]: 100 | Plant response rating, Velvetleaf [13, 19]: 40 | Plant response rating, Velvetleaf [13, 20]: 85 | Plant response rating, Velvetleaf [13, 21]: 95 | Velvetleaf plant response rating [13, 22]: 100 | Velvetleaf plant response rating [13, 23]: 98 | Plant response rating, Waterhemp [14, 16]: 95 | Waterhemp plant response rating [14, 17]: 100 | Plant response rating, Waterhemp [14, 18]: 100 | Plant response rating, Waterhemp [14, 19]: 85 | Plant response rating, Waterhemp [14, 20]: 98 | Plant response rating, Waterhemp [14, 21]: 98 | Waterhemp plant response rating [14, 22]: 100 | Waterhemp plant response rating [14, 23]: 100 | Plant response rating, Wheat [15, 16]: 40 | Wheat plant response rating [15, 17]: 50 | Plant response rating, Wheat [15, 18]: 90 | Plant response rating, Wheat [15, 19]: 0 | Plant response rating, Wheat [15, 20]: 0 | Plant response rating, Wheat [15, 21]: 0 | Wheat plant response rating [15, 22]: 5 | Wheat plant response rating [15, 23]: 85
